In ChEMBL document CHEMBL4007467, “Effects of 6-paradol, an unsaturated ketone from gingers, on cytochrome P450-mediated drug metabolism” (Bioorg Med Chem Lett, 2017):

Columns and labels:
Assay type in all cases: ADME
CYP2C19 [1] = molecular target: T1, CYP2C19 (Homo sapiens, UniProt P33261); assay: Inhibition of CYP2C19 in human liver microsomes assessed as enzyme-mediated metabolite formation at 1 uM using (S)-mephenytoin as substrate preincubated for 20 mins followed by substrate addition measured after 30 mins in presence of NADPH by LC-MS/MS analysis relative to control; design: scale not given: the % may be the effect or the level left; details: probe (S)-mephenytoin, read-out: Activity
T1 sequence (P33261 whole entry): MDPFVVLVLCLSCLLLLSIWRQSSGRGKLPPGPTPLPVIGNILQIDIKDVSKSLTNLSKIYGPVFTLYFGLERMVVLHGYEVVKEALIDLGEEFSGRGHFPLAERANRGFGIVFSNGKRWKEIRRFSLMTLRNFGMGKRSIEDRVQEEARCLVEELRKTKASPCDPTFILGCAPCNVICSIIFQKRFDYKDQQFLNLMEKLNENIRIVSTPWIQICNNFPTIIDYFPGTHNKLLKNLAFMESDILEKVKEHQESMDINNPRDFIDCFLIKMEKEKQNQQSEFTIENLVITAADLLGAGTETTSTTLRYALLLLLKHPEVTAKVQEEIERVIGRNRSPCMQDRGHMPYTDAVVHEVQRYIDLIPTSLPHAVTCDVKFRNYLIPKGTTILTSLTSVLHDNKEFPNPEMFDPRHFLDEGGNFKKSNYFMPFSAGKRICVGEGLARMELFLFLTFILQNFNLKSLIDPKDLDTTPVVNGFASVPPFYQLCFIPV

CYP2A6 = molecular target: T2, CYP2A6 (Homo sapiens, UniProt P11509); assay: Inhibition of CYP2A6 in human liver microsomes assessed as enzyme-mediated metabolite formation at 1 uM using coumarin as substrate incubated for 5 mins followed by NADPH addition measured after 30 mins by LC-MS/MS analysis relative to control; design: scale not given: the % may be the effect or the level left; details: probe coumarin, read-out: Activity
T2 sequence (P11509 whole entry): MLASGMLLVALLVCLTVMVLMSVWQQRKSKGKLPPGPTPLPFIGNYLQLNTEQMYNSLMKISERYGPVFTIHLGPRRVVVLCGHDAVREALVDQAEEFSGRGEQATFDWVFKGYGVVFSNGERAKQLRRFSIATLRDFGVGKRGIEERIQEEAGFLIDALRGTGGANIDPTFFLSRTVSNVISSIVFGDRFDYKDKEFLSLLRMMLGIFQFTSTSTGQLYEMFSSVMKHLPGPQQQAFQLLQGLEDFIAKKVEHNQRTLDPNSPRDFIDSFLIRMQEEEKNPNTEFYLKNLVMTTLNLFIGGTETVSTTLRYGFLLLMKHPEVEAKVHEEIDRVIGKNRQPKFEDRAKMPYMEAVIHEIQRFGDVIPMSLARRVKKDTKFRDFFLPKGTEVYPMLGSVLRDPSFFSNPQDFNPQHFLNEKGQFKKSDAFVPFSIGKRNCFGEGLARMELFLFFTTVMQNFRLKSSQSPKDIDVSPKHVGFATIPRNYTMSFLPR

Cytochrome P450 3A4 = Cytochrome P450 3A4 (Homo sapiens, UniProt P08684); assay: Inhibition of CYP3A4 in human liver microsomes assessed as enzyme-mediated metabolite formation using midazolam as substrate incubated for 5 mins followed by NADPH addition measured after 30 mins by LC-MS/MS analysis
Cytochrome P450 3A4, sequence (P08684 whole entry): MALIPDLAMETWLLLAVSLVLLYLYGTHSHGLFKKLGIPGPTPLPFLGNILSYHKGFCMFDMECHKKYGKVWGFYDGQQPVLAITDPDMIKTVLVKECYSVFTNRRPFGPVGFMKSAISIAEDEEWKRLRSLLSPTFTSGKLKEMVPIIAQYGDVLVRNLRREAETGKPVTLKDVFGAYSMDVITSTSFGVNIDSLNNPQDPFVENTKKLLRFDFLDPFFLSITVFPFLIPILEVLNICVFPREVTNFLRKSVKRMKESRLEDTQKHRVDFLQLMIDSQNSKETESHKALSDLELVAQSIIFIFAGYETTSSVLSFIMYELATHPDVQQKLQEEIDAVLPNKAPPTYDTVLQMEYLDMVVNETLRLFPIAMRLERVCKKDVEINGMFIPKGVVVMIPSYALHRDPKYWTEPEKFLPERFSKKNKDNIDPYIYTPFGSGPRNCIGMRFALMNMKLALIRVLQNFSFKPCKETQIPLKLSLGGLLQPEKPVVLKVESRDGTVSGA

CYP1A2 [2] = molecular target: T3, CYP1A2 (Homo sapiens, UniProt P05177); assay: Inhibition of CYP1A2 in human liver microsomes assessed as enzyme-mediated metabolite formation at 0.3 uM using phenacetin as substrate preincubated for 20 mins followed by substrate addition measured after 30 mins in presence of NADPH by LC-MS/MS analysis relative to control; design: scale not given: the % may be the effect or the level left; details: probe phenacetin, read-out: Activity
T3 sequence (P05177 whole entry): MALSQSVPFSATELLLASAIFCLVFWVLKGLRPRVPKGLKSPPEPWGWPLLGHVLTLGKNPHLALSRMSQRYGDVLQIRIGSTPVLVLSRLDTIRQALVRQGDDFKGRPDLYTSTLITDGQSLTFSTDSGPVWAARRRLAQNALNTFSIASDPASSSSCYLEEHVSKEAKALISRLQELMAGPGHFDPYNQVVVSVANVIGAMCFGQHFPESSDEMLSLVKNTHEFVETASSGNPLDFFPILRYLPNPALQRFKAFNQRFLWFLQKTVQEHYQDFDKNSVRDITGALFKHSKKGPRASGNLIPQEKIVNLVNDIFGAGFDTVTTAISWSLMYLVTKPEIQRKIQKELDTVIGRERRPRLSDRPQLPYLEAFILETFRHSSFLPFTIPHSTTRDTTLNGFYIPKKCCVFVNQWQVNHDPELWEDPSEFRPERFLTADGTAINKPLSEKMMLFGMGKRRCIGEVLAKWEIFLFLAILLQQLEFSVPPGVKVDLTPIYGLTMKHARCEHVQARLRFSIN

Cytochrome P450 2C9 = Cytochrome P450 2C9 (Homo sapiens, UniProt P11712); assay: Inhibition of human CYP2C9 using diclofenac as substrate incubated for 5 mins followed by NADPH addition measured after 30 mins by LC-MS/MS analysis
Cytochrome P450 2C9, sequence (P11712 whole entry): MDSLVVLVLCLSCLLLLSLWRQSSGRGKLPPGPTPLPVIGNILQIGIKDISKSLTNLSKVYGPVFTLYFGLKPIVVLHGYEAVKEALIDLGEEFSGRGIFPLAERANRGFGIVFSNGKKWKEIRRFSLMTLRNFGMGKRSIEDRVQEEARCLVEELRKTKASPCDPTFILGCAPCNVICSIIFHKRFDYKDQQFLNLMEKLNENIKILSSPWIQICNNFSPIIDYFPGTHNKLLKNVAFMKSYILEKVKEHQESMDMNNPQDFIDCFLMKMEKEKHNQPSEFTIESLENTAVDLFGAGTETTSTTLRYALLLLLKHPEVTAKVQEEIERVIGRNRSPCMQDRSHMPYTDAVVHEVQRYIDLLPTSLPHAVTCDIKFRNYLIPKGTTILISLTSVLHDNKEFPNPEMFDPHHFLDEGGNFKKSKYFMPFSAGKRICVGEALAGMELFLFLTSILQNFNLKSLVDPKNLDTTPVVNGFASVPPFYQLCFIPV

CYP3A4 [3] = molecular target: T4, CYP3A4 (Homo sapiens, UniProt P08684); assay: Inhibition of CYP3A4 in human liver microsomes assessed as enzyme-mediated metabolite formation at 0.1 uM using midazolam as substrate incubated for 5 mins followed by NADPH addition measured after 30 mins by LC-MS/MS analysis relative to control; design: scale not given: the % may be the effect or the level left; details: probe midazolam, read-out: Activity
T4 sequence (P08684 whole entry): as the sequence (P08684 whole entry) above

CYP2C8 = molecular target: T5, CYP2C8 (Homo sapiens, UniProt P10632); assay: Inhibition of CYP2C8 in human liver microsomes assessed as enzyme-mediated metabolite formation at 3 uM using paclitaxel as substrate incubated for 5 mins followed by NADPH addition measured after 30 mins by LC-MS/MS analysis relative to control; design: scale not given: the % may be the effect or the level left; details: probe paclitaxel, read-out: Activity
T5 sequence (P10632 whole entry): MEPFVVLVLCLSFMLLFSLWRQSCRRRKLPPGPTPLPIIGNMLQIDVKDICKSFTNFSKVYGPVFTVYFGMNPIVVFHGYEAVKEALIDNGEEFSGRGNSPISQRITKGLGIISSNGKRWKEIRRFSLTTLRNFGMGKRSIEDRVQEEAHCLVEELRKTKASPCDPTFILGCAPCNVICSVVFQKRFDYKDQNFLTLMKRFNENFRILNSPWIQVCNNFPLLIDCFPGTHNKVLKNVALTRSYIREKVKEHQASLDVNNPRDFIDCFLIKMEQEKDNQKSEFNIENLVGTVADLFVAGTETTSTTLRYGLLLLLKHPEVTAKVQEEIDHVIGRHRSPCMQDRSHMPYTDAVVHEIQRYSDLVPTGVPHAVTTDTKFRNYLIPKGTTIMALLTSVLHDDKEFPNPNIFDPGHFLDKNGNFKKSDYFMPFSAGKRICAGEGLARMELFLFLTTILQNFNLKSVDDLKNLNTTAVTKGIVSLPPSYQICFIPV

Cytochrome P450 2C8 = molecular target: T6, Cytochrome P450 2C8 (Homo sapiens, UniProt P10632); assay: Inhibition of human CYP2C8 using paclitaxel as substrate incubated for 5 mins followed by NADPH addition measured after 30 mins by LC-MS/MS analysis
T6 sequence (P10632 whole entry): T5 sequence (P10632 whole entry)

CYP2D6 = CYP2D6 (Homo sapiens, UniProt P10635); assay: Inhibition of CYP2D6 in human liver microsomes assessed as enzyme-mediated metabolite formation at 0.1 uM using dextromethorphan as substrate incubated for 5 mins followed by NADPH addition measured after 30 mins by LC-MS/MS analysis relative to control; design: scale not given: the % may be the effect or the level left; details: probe dextromethorphan, read-out: Activity
CYP2D6, sequence (P10635 whole entry): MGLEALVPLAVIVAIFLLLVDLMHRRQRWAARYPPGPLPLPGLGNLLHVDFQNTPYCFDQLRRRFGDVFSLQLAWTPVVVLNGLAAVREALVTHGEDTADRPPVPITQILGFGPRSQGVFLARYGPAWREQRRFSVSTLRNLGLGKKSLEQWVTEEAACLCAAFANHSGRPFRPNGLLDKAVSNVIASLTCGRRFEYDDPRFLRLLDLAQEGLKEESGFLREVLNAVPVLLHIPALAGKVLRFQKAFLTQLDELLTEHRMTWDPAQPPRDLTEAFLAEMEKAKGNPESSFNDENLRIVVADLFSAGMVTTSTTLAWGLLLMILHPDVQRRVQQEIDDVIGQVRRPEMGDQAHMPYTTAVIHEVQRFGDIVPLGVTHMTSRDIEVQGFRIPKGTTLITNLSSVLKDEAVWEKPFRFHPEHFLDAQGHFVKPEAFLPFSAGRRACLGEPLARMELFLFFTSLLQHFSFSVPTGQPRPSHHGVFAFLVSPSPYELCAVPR

CYP1A2 [4] = molecular target: T3, CYP1A2; assay: Inhibition of CYP1A2 in human liver microsomes assessed as enzyme-mediated metabolite formation at 0.3 uM using phenacetin as substrate incubated for 5 mins followed by NADPH addition measured after 30 mins by LC-MS/MS analysis relative to control; design: scale not given: the % may be the effect or the level left; details: probe phenacetin, read-out: Activity
CYP2C19 [5] = molecular target: T1, CYP2C19; assay: Inhibition of CYP2C19 in human liver microsomes assessed as enzyme-mediated metabolite formation at 1 uM using (S)-mephenytoin as substrate incubated for 5 mins followed by NADPH addition measured after 30 mins by LC-MS/MS analysis relative to control; design: scale not given: the % may be the effect or the level left; details: probe (S)-mephenytoin, read-out: Activity
CYP3A4 [6] = molecular target: T4, CYP3A4; assay: Inhibition of CYP3A4 in human liver microsomes assessed as enzyme-mediated metabolite formation at 0.1 uM using testosterone as substrate preincubated for 20 mins followed by substrate addition measured after 30 mins in presence of NADPH by LC-MS/MS analysis relative to control; design: scale not given: the % may be the effect or the level left; details: probe testosterone, read-out: Activity

- activity at 0.5 h, 1 µM (CYP2C19 [1]): 72.1%
- activity at 0.5 h, 1 µM (CYP2A6): 83.6%
- IC50 (Cytochrome P450 3A4): > 30 µM
- activity at 0.5 h, 0.3 µM (CYP1A2 [2]): 96.4%
- IC50 (Cytochrome P450 2C9): 10.5 µM
- inhibition (INH) (Cytochrome P450 2C9; human, 0.5 h): Dose-dependent effect
- activity at 0.5 h, 0.1 µM (CYP3A4 [3]): 109%
- activity at 0.5 h, 3 µM (CYP2C8): 58.7%
- IC50 (Cytochrome P450 2C8): 3.8 µM
- inhibition (INH) (Cytochrome P450 2C8; human, 0.5 h): Dose-dependent effect
- activity at 0.5 h, 0.1 µM (CYP2D6): 112%
- activity at 0.5 h, 0.3 µM (CYP1A2 [4]): 97.8%
- activity at 0.5 h, 1 µM (CYP2C19 [5]): 88.4%
- activity at 0.5 h, 0.1 µM (CYP3A4 [6]): 93.4%
SMILES: CCCCCCCC(=O)CCc1ccc(O)c(OC)c1
